Experimental data: US20110045477A1, “HUMAN SKIN EXPLANT CULTURE SYSTEM AND USE THEREFOR” (priority 2009, published 2011)

How the values were obtained:
[1] = test system: human skin explants; test: LUNA staining of elastin fibers in skin explants; assay type: cell-based; details: 20 ng/ml in Medium 1, 37° C., grade 1-5, 5 = best fiber quality
Description: (§1) Skin explant cultures were established as described in Example 1, using Medium 1. Explants were incubated at 37° C. in a 5% CO2 atmosphere. Skin explants either remained untreated or were treated, in Medium 1, with TGF-β, an agent known to increase elastin production. Media were refreshed daily. After predetermined time periods, the skin explants were harvested, and processed for histological, immunohistochemical, and gene expression evaluation as follows. • 1. LUNA staining was used to document elastin fibers histologically, as described in Kligman, Am. J. of Dermatopathology, 3(2): 199-201, 1981. The grading of elastin fiber quality ranged from 1-5, when 5 represented best fiber quality. • 2. Ki67 was used as a marker for cell proliferation, using immunohistochemistry techniques with a rabbit monoclonal antibody for Ki67, purchased from Thermo Scientific (Pittsburgh, Pa.). Immunohistochemistry staining was performed according to manufacturer's instructions. The grading of Ki67 ranged from 1-5, when 5 represented normal Ki67 level in the skin sample prior to culture. • 3. Levels of elastin gene expression (mRNA levels) were evaluated by QPCR. Total RNA was extracted from skin explants using Trizol (Invitrogen, Carlsbad Calif.) according to manufacturer's instructions. […]

[2] = test system: human skin explants; test: Ki67 immunohistochemistry (cell proliferation marker) in skin explants; assay type: cell-based; details: 20 ng/ml in Medium 1, 37° C., grade 1-5, 5 = normal level prior to culture
Description: as §1

[3] = test system: elastin gene expression; test: Elastin gene expression (mRNA) by QPCR in skin explants; assay type: cell-based, human; details: 20 ng/ml
Description: as §1

[4] = test system: subcutaneous adipose layer of skin explants; test: Lipolysis: glycerol released into culture media of skin explants; assay type: cell-based, human; details: 50 μM in medium, untreated control 100%
Description: (§2) To examine the metabolic activity of the subcutaneous adipose layer, explant cultures were established as described in Example 1, using optimized media with 5% serum. After overnight incubation, skin explants remained untreated or were treated with 20 μM of rosiglitazone or with 50 μM of conjugated linoleic acid in the media, for the evaluation of their effect on lipogenesis and lipolysis of subcutaneous adipose layer. Explants were incubated at 37° C. in a 5% CO2 atmosphere.
For evaluating lipolysis, skin explants were cultured in medium containing 50 μM of conjugated linoleic acid, and culture media were collected at indicated time points. The levels of glycerol released into the media were determined using the free glycerol reagent and kit (Sigma), which was used according to manufacture instruction.

[5] = test system: subcutaneous adipose layer of skin explants; test: Lipogenesis: triglyceride synthesis from C-14 acetate in subcutaneous fat of skin explants (HPTLC); assay type: cell-based, human; details: 20 μM in medium, untreated control 100%
Description: as §2
For assessing lipogenesis, skin explants were cultured in medium containing 20 μM of rosiglitazone and C-14 labeled acetate for 24 hours. Subcutaneous fat was then harvested, and the levels of triglyceride were determined by HPTLC as described in (Pappas et al., JID 118 (1) 164-171, 2002).

## TGF-β
[1]; Day 5
  LUNA staining Elastin fibers (grade): 3
[1]; Day 7
  LUNA staining Elastin fibers (grade): 4
[2]; Day 5
  Ki67 Proliferation marker (grade): 4
[2]; Day 7
  Ki67 Proliferation marker (grade): 4
[3]; Day 5, untreated control normalized to 100%
  Elastin mRNA (QPCR): 369%
[3]; Day 7, untreated control Day 5 = 100% (Day 7 control 243%)
  Elastin mRNA (QPCR): 423%

## conjugated linoleic acid
[4]
  Glyceral release at day 3 (lipolysis): 140%

## CN(CCOc1ccc(CC2SC(=O)NC2=O)cc1)c1ccccn1 (centres unmarked) [Rosiglitazone, rosiglitazone]
[5]
  Triglyceride synthesis at 24 hr (lipogenesis): 240-270%
